Laboratory results: US9284296B2, “Bipyridine sulfonamide derivatives for the treatment of neurodegenerative diseases or conditions” (AUBERGINE PHARMACEUTICALS LLC, priority 2010, dated 2016)
pEC50, pIC50: −log10 of the molar value.

What was measured:
Assay type in all cases: cell-based
[1] = system: SH-SY5Y human neuroblastoma cells; assay: Protection against hydrogen peroxide-induced cell death; conditions: Homo sapiens; SH-SY5Y cells, 1 h preincubation, 100 μM hydrogen peroxide, 24 h, LDH readout of live cells
Procedure: The aim of this assay is to determine the neuroprotective effect of the compounds when human neuroblastoma cells are exposed to the oxidative stress induced by hydrogen peroxide, which leads to cell death. Therefore the protective effect of the compounds was measured by monitoring cell survival using a suitable commercial kit (Cytotoxicity Detection Kit, Roche Diagnostics GmbH, Mannheim, Germany) based on the quantification of the lactate dehydrogenase activity obtained from lysates of the remaining live cells with a colorimetric assay yielding absorbance at 492 nm as the final readout.
SH-SY5Y human neuroblastoma cells were seeded into 96-well culture plate at a density of 10,000 cells/well. Cells were preincubated for one hour with different concentrations of the compound at a 1% (v/v) DMSO concentration in an equivolumetric mixture of Minimum Essential Medium (MEM) and Nutrient Mixture HAM F12 supplemented with 10% foetal bovine serum, 100 U/ml penicillin, 100 μg/ml streptomycin, 1 mM each of non-essential aminoacids (commercial preparation from GIBCO, Paisley, UK) and 2 mM L-glutamine. Hydrogen peroxide was then added to reach 100 μM and the incubation was extended for 24 h. Then the medium was removed and live cells, which remained attached to the bottom of the plate, were lysed by incubating them during 5 min with 50 μl of 1% (v/v) Triton X-100 in Krebs-Hepes buffer (10 mM Hepes pH7.3 with 145 mM NaCl, 5.5 mM KCl, 1 mM MgCl2, 2 mM CaCl2 and 1 mM glucose). This lysate was used to measure LDH activity using the commercial kit according to the manufacturer's instructions. In the culture plate several wells were included as a control of cell death, in these wells the cells were preincubated with 1% (v/v) DMSO before hydrogen peroxide addition. Likewise, several wells were included as control for full cell survival, in these wells the addition of H2O2 was omitted. The absorbance of each tested sample was normalized to that of the control wells, so that for every compound concentration the percentage of protective effect was calculated with the following equation:
[formula] where “S” is the absorbance of the sample being considered, “E” is the average absorbance of wells used as control of full cell survival and “B” is the average absorbance of wells used as control of cell death. The values obtained at every compound concentration were finally used to calculate the EC50 (i.e., the concentration causing 50% of protective effect) of the tested compound. For that purpose the data were fitted to a classical 4-parameters isotherm equation using the nonlinear regression function of GraphPad™ Prism 5.0 (GraphPad Software Inc.), such equation is described below:
[formula] where “L” is the lower asymptote of the theoretical sigmoidal curve, “H” is the higher asymptote, “C” is the concentration of compound and “n” is the Hill coefficient.

[2] = system: secretion of amyloid peptide β1-40 (Aβ1-40); assay: Inhibition of β-amyloid secretion (CHO7w cells stably transfected with human APP, ELISA); conditions: CHO-7W, 24 h incubation, range stated for the listed compounds together
Procedure: The inhibition caused by the compounds on the secretion of amyloid peptide β1-40 (Aβ1-40) was determined by measuring the levels of this peptide in cell supernatants after incubating the cells with several concentrations of the tested compound. A CHO7w cell line, stably transfected with human amyloid precursor protein (APP), was used. Cells were dispensed in 96-well culture plates (5,000 cells/well) and grown in DMEM supplemented with 2% (v/v) foetal bovine serum, 100 U/ml penicillin, 100 μg/ml streptomycin, 2 mM L-glutamine and 200 μg/ml G418 in the presence of several concentrations of the tested compound which had been previously dissolved in DMSO (1% (v/v) DMSO final concentration). After a 24 h incubation the amount of Aβ1-40 secreted to the medium was measured with an ELISA-based commercial kit (Human Amyloid β-40 ELISA High Sensitivity Kit, Millipore, Billerica, Mass., USA) using absorbance at 450 nm as the final readout. In the culture plate several wells were included as a control for lack of Aβ1-40 secretion, in these wells the cells were incubated in the presence of 16% (v/v) DMSO to inhibit cell growth therefore abolishing Aβ1-40 secretion. Likewise, several wells were also included as a control for full Aβ1-40 secretion, in these wells the cells were grown in the presence of 1% (v/v) DMSO. The absorbance of each tested sample was normalized to that of the control wells, so that for every compound concentration the percentage of inhibition was calculated with the following equation:
[formula] where “S” is the absorbance of the sample being considered, “E” is the average absorbance of wells lacking Aβ1-40 secretion and “B” is the average absorbance of wells with full Aβ1-40 secretion. The inhibition values obtained at every compound concentration were fitted to a 4-parameters isotherm equation, as described above, to calculate the […] (i.e., the concentration causing 50% of inhibition of Ab1-40 secretion).

[3] = system: secretion of soluble amyloid precursor protein-α (sAPPα); assay: Stimulation of sAPPα secretion (CHO7w cells stably transfected with human APP, AlphaLISA)
Procedure: The effect of the compounds on the stimulation of the secretion of soluble amyloid precursor protein-α (sAPPα) was determined by measuring the levels of this protein in cell supernatants after incubating the cells with several concentrations of the tested compound. A CHO7w cell line, stably transfected with human APP, was used. Cells were dispensed in 96-well culture plates (5,000 cells/well) and grown in DMEM supplemented with 2% (v/v) foetal bovine serum, 100 U/ml penicillin, 100 μg/ml streptomycin, 2 mM L-glutamine and 200 μg/ml G418 in the presence of several concentrations of the tested compound which had been previously dissolved in DMSO (1% (v/v) DMSO final concentration). After 24 h of incubation 5 μl of the culture supernatants were withdrawn and their sAPPα. concentration was measured with a commercial kit (AlphaLISA® Amyloid Precursor Protein-α Secreted Research kit, PerkinElmer, Waltham, Mass., USA) following manufacturer's instructions. In the culture plate several wells were included as a control for background sAPPα secretion, in these wells the cells were incubated with 1% (v/v) DMSO. The results obtained for each tested sample were normalized by using the following equation:
[formula] where “S” is the sAPPα concentration of the sample being considered, “B” is the average sAPPα concentration of wells used for background secretion and “M” is the sAPPα concentration of wells yielding the highest value. These normalized values obtained at every compound concentration were finally used to calculate the EC50 of the tested compound fitting them to a 4-parameters isotherm equation as already described. The average EC50s ranges are reported in Table 4 together with the maximum observed effect (and the concentration at which this effect was reached), this latter value was calculated for each compound according to the following equation:
[formula] with “M” and “B” as defined above.

pIC50 [2]: 4.38 to 6.52
pEC50 ([3]; Homo sapiens, CHO-7W, CHO7w cells, 24 h incubation, range stated for the listed compounds together): 4.96 to 6.30
Structure (SMILES): COc1cc(CNS(=O)(=O)c2ccc(Cl)s2)nc(-c2ccccn2)c1 [Compound 2, 5-Chloro-thiophene-2-sulfonic acid (4-methoxy-[2,2′]bipyridinyl-6-ylmethyl)-amide]
pEC50 [1]: 6.10
Emax ([3]; Homo sapiens, CHO-7W, CHO7w cells, 24 h incubation, range stated for the listed compounds together, read-out: maximum effect (sAPPα secretion)): 250 to 500%
rank of maximum effect among compounds tested (sAPPα secretion) ([3]; comparison among tested compounds): maximum effect was obtained
